From patent EP3748362A1, “IN VITRO METHOD FOR DETECTING RENAL DISEASE” (Fundacion Instituto De Investigacion Sanitaria Fundacion …, priority 2019, dated 2020)

Key:
TRAF3 [1] = assay: Renal TRAF3 (western blot), TWEAK-mediated renal inflammation in mice; type: in vivo; details: TWEAK 0.5 µg model; paricalcitol 750 ng/kg/day i.p.; sacrificed 24 hours after TWEAK
Experimental: (§1) All animal procedures were performed according to the guidelines of animal research in the European Community and with prior approval by the Ethics Committee of the Health Research of the IIS-Fundacion Jiménez Díaz. For in vivo studies, mice received a daily intraperitoneal injection of the VDRA Paricalcitol starting 48 hours prior to induction of kidney damage.
(§2) At the time of sacrifice, animals were anesthetized with 5 mg/kg xylazine (Rompun, Bayer AG) and 35 mg/kg ketamine (Ketolar, Pfizer) and the kidneys perfused in situ with cold saline before removal. Then, kidney portions were fixed in formalin buffer for immunohistochemistry studies or immediately frozen in liquid nitrogen for gene and protein studies.
TWEAK administration: C57BL/6 female mice (9-12 weeks, weight 20 g, 7-8 animals per group), received a single intraperitoneal injection of 0.5 µg TWEAK dissolved in saline and were sacrificed 24 hours later, as previously described (Sanz et al. 2008). Controls were injected with the saline vehicle (n=8-10 mice per group). TWEAK endotoxin level were <0.1 ng/mg, confirmed by MALDI-TOF. […]
(§3) For western blot, cell (25 µg/lane) and kidney (100-150 µg/lane) protein extracts were separated on 6%-12% polyacrylamide-SDS gels under reducing conditions. […] Autoradiographs were scanned using the Gel Doc™ EZ imager and analyzed with the Image Lab 3.0 software (BioRad).

NF-κB2 [2] = assay: Non-canonical NF-κB2 activation and NF-κB2 targets in obstructed kidneys (UUO) in mice; type: in vivo; details: paricalcitol 750 ng/kg/day
Experimental: as §1, §2
Unilateral ureteral obstruction (UUO) was established in male C57BL/6 mice, under isoflurane-induced anesthesia. The left ureter was ligated with silk (5/0) at two locations and cut between ligatures to prevent urinary tract infection (obstructed kidney).(Ucero et al 2014; Rodrigues-Díez et al 2013) Two groups were studied; untreated or paricalcitol treated (750 ng/kg/day, i.p., Abbot), n=6-8 mice per group, starting 48 hours before surgery. Studies compared both kidneys (contralateral vs. obstructed) in each mouse.
Paraffin-embedded kidney sections (3 µm) were stained using conventional methods. […] For each sample (processed by duplicate in a blinded manner), the average value was obtained from the analysis of 4 fields (20X objective) as density/mm2 or percentage stained area vs total analyzed area. Data are expressed as fold increase over control mice, as mean ± SEM of 8-10 animals per group. […]
(§4) For western blot, cell (25 µg/lane) and kidney (100-150 µg/lane) protein extracts were separated on 6%-12% polyacrylamide-SDS gels under reducing conditions. […] Autoradiographs were scanned using the Gel Doc™ EZ imager and analyzed with the Image Lab 3.0 software (BioRad). […]

TRAF3 [3] = assay: Renal TRAF3 (western blot), folic acid-induced renal injury in mice; type: in vivo; details: folic acid 300 mg/kg model; paricalcitol 25 µg/kg/day i.p.
Experimental: as §1, §2
Folic acid nephropathy is a classical model of kidney tubulointerstitial injury and inflammation that has been reported in humans. Mice received a single intraperitoneal injection of folic acid (Sigma) 300 mg/kg in 0.3 mol/l sodium bicarbonate or vehicle, and were sacrificed 48 hours later. […]
as §3

NF-κB2 [4] = assay: Non-canonical NF-κB2 activation and NF-κB2 targets in kidneys of TWEAK-injected mice; type: in vivo
Experimental: as §1, §2
TWEAK administration: C57BL/6 female mice (9-12 weeks, weight 20 g, 7-8 animals per group), received a single intraperitoneal injection of 0.5 µg TWEAK dissolved in saline and were sacrificed 24 hours later, as previously described (Sanz et al. 2008). Controls were injected with the saline vehicle (n=8-10 mice per group). TWEAK endotoxin level were <0.1 ng/mg, confirmed by MALDI-TOF. Some animals received paricalcitol 750 ng/kg/day, or the NF-κB2 inhibitor SN52, 0.7 mg/mouse/day, starting 48 hours before TWEAK administration. Animals were sacrificed 24 hours later. The dose of paricalcitol was chosen based on prior experience in mild inflammatory kidney conditions.
Paraffin-embedded kidney sections (3 µm) were stained using conventional methods. Antigen retrieval was performed by PTlink link system (Dako Diagnostics) with sodium citrate buffer (10 mmol/L) adjusted to pH 6-9 depending on the immunohistochemical marker, followed by immunohistochemical staining in a Dako Autostainer. Steps: 1) endogenous peroxidase blockade; 2) primary antibodies incubation; anti-CD3 (1:300; Dako) or anti-F4/80 (1:5000; Serotec); NF-κB p-p65 (1:200; Cell Signalling); NF-κB2 p52 (1:50; Cell Signaling); RelB (1:50; Santa Cruz Biotechnology); CCL21 (1:90; Santa Cruz Biotechnology); 3) washing; 4) DUOFLEX Doublestain EnVision™ treatment, using 3,3'-diaminobenzidine as chromogen. For F4/80 staining a rabbit anti-rat linker was used before EnVision. Sections were counterstained with Carazzi's hematoxylin. […] For each sample (processed by duplicate in a blinded manner), the average value was obtained from the analysis of 4 fields (20X objective) as density/mm2 or percentage stained area vs total analyzed area. Data are expressed as fold increase over control mice, as mean ± SEM of 8-10 animals per group. […]
as §4

NF-κB 1 pathway = assay: Canonical NF-κB1 activation in TWEAK-stimulated PBMCs from healthy donors; type: cell-based, Human; details: 12 µM paricalcitol, TWEAK 100 ng/ml, phosphorylated p65

p100/p52 processing, and p52 nuclear translocation and DNA binding activity (NF-κB2 [2]): blocked | TWEAK-induced p52 and RelB DNA binding activities (NF-κB2 [4]; renal nuclear protein extracts, paricalcitol 750 ng/kg/day, ELISA): inhibited
Structure (SMILES): C[C@H](/C=C/[C@H](C)C(C)(C)O)[C@H]1CC[C@H]2/C(=C/C=C3C[C@@H](O)C[C@H](O)C3)CCC[C@]12C [paricalcitol]
renal TRAF3 protein levels (TRAF3 [1]): restored renal TRAF3 protein levels to values of control mice | increased RelB levels and its nuclear localization (NF-κB2 [2]): prevented | increased expression of specific NF-κB2-regulated chemokines, including CCL21A and CCL19 (NF-κB2 [2]; real time PCR): prevented | renal TRAF3 protein levels (TRAF3 [3]): restored renal TRAF3 protein levels to values of control mice | renal CCL21A and CCL19 gene expression (NF-κB2 [4]; paricalcitol 750 ng/kg/day or SN52 0.7 mg/mouse/day, real time PCR): reduced | TWEAK-induced NF-κB2 activation in the kidney: nuclear p52 and RelB accumulation in tubular epithelial cells (NF-κB2 [4]; paricalcitol 750 ng/kg/day, immunohistochemistry, western blot): reduced | CCL21 protein levels (NF-κB2 [4]; total kidney proteins, paricalcitol 750 ng/kg/day, western blot): reduced | canonical NF-κB 1 pathway (NF-κB 1 pathway): without modulating
